Values of other authors, collected in US20230357798A1, “GENE CORRECTION FOR X-CGD IN HEMATOPOIETIC STEM AND PROGENITOR CELLS” (THE BOARD OF TRUSTEES OF THE LELAND STANFORD JUNIOR …, priority 2020, published 2023).
Like-named read-outs stand apart in the source and are kept apart here.

What was measured:
CD34^+ HSPCs [1] = system: CD34^+ HSPCs
CD34^+ HSPCs [2] = details: for cell viability relative to edited controls: single agent, CD34+ HSPCs

Compound	enhancement of HDR (CD34^+ HSPCs [1]; single agent, CD34+ HSPCs) [fold]	cell viability relative to edited controls (CD34^+ HSPCs [2]) [%]	enhancement of HDR (CD34^+ HSPCs [1]; combined with Trichostatin A and NSC 15520, CRISPR/Cpf1, ssODN donor) [fold]	HSPC viability (CD34^+ HSPCs [2]; combined with Trichostatin A and NSC 15520) [%]
O=c1cc(N2CCOCC2)oc2c(-c3cccc4c3sc3ccccc34)cccc12 [NU7441]	2	~65	–	–
O=c1cc(N2CCOCC2)oc2c1ccc1ccccc12 [NU7026]	1.7	~80	2.6	65
